Assay results published in patent US10517867B2, “Posaconazole derivative, pharmaceutical composition and use thereof” (priority 2016, dated 2019).

Legend:
[1] = In vitro metabolic stability in rat plasma; assay type: in vitro ADME; conditions: rat, plasma, 37° C., 10 μM compound, read-out: Rat plasma T1/2
Procedure: (§1) This example detects the metabolic stability of the compounds of the present disclosure in human (rat) plasma and intestinal S9 in vitro. In a human (rat) plasma reaction system, 990 μl of human (rat) plasma was taken and incubated at 37° C. for 5 minutes, and 10 μl of the compound mother liquor was used to initiate the reaction. In the human (rat) intestinal S9 stability experiment, in the order shown in Table 2 below, the samples were added and incubated in a 37° C. water bath to initiate the reaction, each sample performed in triplicates. Respectively, at 1 minute, 2 minutes, 5 minutes, 15 minutes, 30 minutes after the reaction began, 100 μL of each was taken and added to a centrifuge tube containing 400 μL of 0° C. precooled internal standard working solution. The reaction was terminated, vortexed and mixed for 1 minute, centrifuged at 10000×g for 10 minutes in a 4° C. precooled high-speed centrifuge, and the supernatant was detected with HPLC. The test results were used to calculate metabolic half-life using WinNonlin (version 6.2 Pharsight, Mountain View, Calif.) with a non-compartmental model.
(§2) Compound stock solution concentration: 1 mM
(§3) Reaction matrix: human (rat) plasma, intestinal S9 purchased from Research Institute for Liver Diseases (Shanghai) Co., Ltd.

[2] = Determination of solubility in deionized water (HPLC, external standard); conditions: 25 °C, water, thermodynamic from solid
[3] = In vitro metabolic stability in human plasma; assay type: in vitro ADME; conditions: human, plasma, 37° C., 10 μM compound, read-out: Human plasma T1/2
Procedure: as §1, §2, §3

[4] = tested on: Candida albicans ATCC10231; assay: Systemic fungal infection in mice, intragastric administration; assay type: in vivo, ICR mice; conditions: Candida albicans, ATCC10231, po
Procedure: (§4) ICR mice, weighing 18-22 g, male, provided by Hubei Experimental Animal Center.
Prior to the experiment, a small amount of Candida albicans was picked from an SDA medium kept at 4° C. with an inoculation loop and inoculated into 1 ml YPD culture medium, cultured at 30° C. with 200 rpm shaking and activated for 16 hours, so that the fungus was in the late stage of exponential growth. Counted with a hemocytometer and the fungal solution concentration was adjusted to 1×10^3 to 5×10^3 CFU/ml with RPMI1640 medium. Monoclonal Candida albicans on SDA plate was picked up, inoculated into 1 ml YPD (Yeast Extract Peptone Dextrose Medium, the same below) culture medium, cultured at 35° C., 200 rpm for 16 hours until late exponential growth phase. Candida albicans was inoculated into fresh medium for culturing for 6 hours at 1%, centrifuged at 1000×g for 5 minutes, washed with physiological saline three times until the supernatant was colorless, counted with a hemocytometer, and the cell concentration was adjusted to 5×10^6 cells/ml. A tail vein injection of 0.1 ml/10 g caused a systemic fungal infection in mice. […] A total of 7 days of observations were performed. All dead mice were burned with ethanol.

[5] = In vitro metabolic stability in human intestine S9; assay type: in vitro ADME; conditions: human; 37° C., 10 μM compound, 1 mg/mL S9, NADPH regeneration system; read-out: Human intestine S9 T1/2
Procedure: as §1, §2, §3

[6] = tested on: Candida albicans ATCC10231; assay: Systemic fungal infection in mice, intravenous administration; assay type: in vivo, ICR mice
Procedure: as §4
Prior to the experiment, a small amount of Candida albicans was picked from an SDA (sacharomyces agar, the same below) medium kept at 4° C. with an inoculation loop and inoculated into 1 ml YPD (Yeast Extract Peptone Dextrose Medium) culture medium, cultured at 30° C. with 200 rpm shaking and activated for 16 hours, so that the fungus was in the late stage of exponential growth. Counted with a hemocytometer and the fungal solution concentration was adjusted to 1×10^3-5×10^3 CFU/ml with RPMI1640 medium (Roswell Park Memorial Institute 1640, the same below). Monoclonal Candida albicans on SDA plate was picked up, inoculated into 1 ml YPD (Yeast Extract Peptone Dextrose Medium, the same below) culture medium, cultured at 35° C., 200 rpm for 16 hours until late exponential growth phase. Candida albicans was inoculated into fresh medium for culturing for 6 hours at 1%, centrifuged at 1000×g for 5 minutes, washed with physiological saline three times until the supernatant was colorless, counted with a hemocytometer, and the cell concentration was adjusted to 5×10^6 cells/ml. A tail vein injection of 0.1 ml/10 g caused a systemic fungal infection in mice. […] A total of 7 days of observations were performed. All dead mice were burned with ethanol.

[7] = In vitro metabolic stability in rat intestine S9; assay type: in vitro ADME; conditions: rat, pH 7.4; 37° C., 10 μM compound, 1 mg/mL S9, NADPH regeneration system; read-out: Rat intestine S9 T1/2
Procedure: as §1, §2, §3

[8] = 24 h, read-out: survival rate of mice, day 1, 20 mg/kg intragastric once daily for 5 days, day 1
[9] = 48 h, read-out: survival rate of mice, day 2, 20 mg/kg intragastric once daily for 5 days, day 2
[10] = 72 h, read-out: survival rate of mice, day 3, 20 mg/kg intragastric once daily for 5 days, day 3
[11] = 96 h, read-out: survival rate of mice, day 4, 20 mg/kg intragastric once daily for 5 days, day 4
[12] = 120 h, read-out: survival rate of mice, day 5, 20 mg/kg intragastric once daily for 5 days, day 5
[13] = 144 h, read-out: survival rate of mice, day 6, 20 mg/kg intragastric once daily for 5 days, day 6
[14] = 168 h, read-out: survival rate of mice, day 7, 20 mg/kg intragastric once daily for 5 days, day 7
[15] = 24 h, read-out: survival rate of mice, day 1
[16] = 48 h, read-out: survival rate of mice, day 2
[17] = 72 h, read-out: survival rate of mice, day 3
[18] = 96 h, read-out: survival rate of mice, day 4
[19] = 120 h, read-out: survival rate of mice, day 5
[20] = 144 h, read-out: survival rate of mice, day 6
[21] = 168 h, read-out: survival rate of mice, day 7

| Structure (SMILES) | half-life at 10 µM [1] [min] | solubility at 30 min [2] [mg/mL] | half-life at 10 µM [3] [min] | responders at 20 mg/kg [4, 8] [%] | responders at 20 mg/kg [4, 9] [%] | responders at 20 mg/kg [4, 10] [%] | responders at 20 mg/kg [4, 11] [%] | responders at 20 mg/kg [4, 12] [%] | responders at 20 mg/kg [4, 13] [%] | responders at 20 mg/kg [4, 14] [%] | half-life at 10 µM [5] [min] | responders at 20 mg/kg [6, 15] [%] | responders at 20 mg/kg [6, 16] [%] | responders at 20 mg/kg [6, 17] [%] | responders at 20 mg/kg [6, 18] [%] | responders at 20 mg/kg [6, 19] [%] | responders at 20 mg/kg [6, 20] [%] | responders at 20 mg/kg [6, 21] [%] | half-life at 10 µM [7] [min] | other results |
| --- | --- | --- | --- | --- | --- | --- | --- | --- | --- | --- | --- | --- | --- | --- | --- | --- | --- | --- | --- | --- |
| CC[C@@H]([C@H](C)OC(=O)OCOC(=O)CCCCCOP(=O)([O-])[O-])n1ncn(-c2ccc(N3CCN(c4ccc(OC[C@@H]5CO[C@@](Cn6cncn6)(c6ccc(F)cc6F)C5)cc4)CC3)cc2)c1=O.[Na+].[Na+] [ST0073] | 0.75 ± 0.23 | > 50 | 0.92 ± 0.11 | 100 | 90 | 80 | 80 | 80 | 70 | 70 | 16.2 ± 6.08 | 100 | 100 | 100 | 100 | 90 | 90 | 90 | 16 ± 8.96 |  |
| CC[C@@H](C(C)OC(=O)OCOC(=O)CCCCCCOP(=O)([O-])[O-])n1ncn(-c2ccc(N3CCN(c4ccc(OC[C@@H]5CO[C@@](Cn6cncn6)(c6ccc(F)cc6F)C5)cc4)CC3)cc2)c1=O.[Na+].[Na+] (stereo partly drawn) [ST0074] | 1.26 ± 0.54 | > 50 | 0.86 ± 0.07 | 100 | 100 | 90 | 80 | 80 | 80 | 70 | 20 ± 4.66 | 100 | 100 | 90 | 90 | 90 | 90 | 90 | 18.2 ± 5.66 |  |
| CC[C@@H](C(C)OC(=O)OC(C)OC(=O)CCCOS(=O)(=O)[O-])n1ncn(-c2ccc(N3CCN(c4ccc(OC[C@@H]5CO[C@@](Cn6cncn6)(c6ccc(F)cc6F)C5)cc4)CC3)cc2)c1=O.[Na+] (stereo partly drawn) [ST0077] | 1.55 ± 0.56 | > 50 | 1.97 ± 1.29 |  |  |  |  |  |  |  | 21.3 ± 5.09 |  |  |  |  |  |  |  | 19.3 ± 5.65 | responders at 20 mg/kg ([4]; 24 h, 20 mg/kg intragastric once daily for 5 days, day 1, read-out: survival rate of mice, day 1): 100%; responders at 20 mg/kg ([4]; 48 h, 20 mg/kg intragastric once daily for 5 days, day 2, read-out: survival rate of mice, day 2): 90%; responders at 20 mg/kg ([4]; 72 h, 20 mg/kg intragastric once daily for 5 days, day 3, read-out: survival rate of mice, day 3): 80%; responders at 20 mg/kg ([4]; 96 h, 20 mg/kg intragastric once daily for 5 days, day 4, read-out: survival rate of mice, day 4): 80%; responders at 20 mg/kg ([4]; 120 h, 20 mg/kg intragastric once daily for 5 days, day 5, read-out: survival rate of mice, day 5): 80%; responders at 20 mg/kg ([4]; 144 h, 20 mg/kg intragastric once daily for 5 days, day 6, read-out: survival rate of mice, day 6): 70%; responders at 20 mg/kg ([4]; 168 h, 20 mg/kg intragastric once daily for 5 days, day 7, read-out: survival rate of mice, day 7): 70%; responders at 20 mg/kg ([6]; 24 h, 20 mg/kg tail vein once daily for 5 days, day 1, read-out: survival rate of mice, day 1): 100%; responders at 20 mg/kg ([6]; 48 h, 20 mg/kg tail vein once daily for 5 days, day 2, read-out: survival rate of mice, day 2): 100%; responders at 20 mg/kg ([6]; 72 h, 20 mg/kg tail vein once daily for 5 days, day 3, read-out: survival rate of mice, day 3): 100%; responders at 20 mg/kg ([6]; 96 h, 20 mg/kg tail vein once daily for 5 days, day 4, read-out: survival rate of mice, day 4): 100%; responders at 20 mg/kg ([6]; 120 h, 20 mg/kg tail vein once daily for 5 days, day 5, read-out: survival rate of mice, day 5): 90%; responders at 20 mg/kg ([6]; 144 h, 20 mg/kg tail vein once daily for 5 days, day 6, read-out: survival rate of mice, day 6): 90%; responders at 20 mg/kg ([6]; 168 h, 20 mg/kg tail vein once daily for 5 days, day 7, read-out: survival rate of mice, day 7): 90% |
